Measured values from ChEMBL document CHEMBL1201862, “PubChem BioAssay data set” (2004).
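48-hour exposure; five concentrations; linearly interpolated endpoints. GI50 = concentration required for 50% inhibition of growth.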 Active and inactive are the calls of the source. Cut-off read from the data, not from the text of the source: active = GI50 up to about 1.1 µM and inactive = higher.

Tests used:
Experiment in all cases: inhibition of tumour cell growth, NCI panel, 48 h
HCT-116 = tested on: HCT-116
MDA-N = tested on: MDA-N
SF-268 = tested on: SF-268
HOP-92 = tested on: HOP-92
NCI-H226 = tested on: NCI-H226
SF-295 = tested on: SF-295
RPMI-8226 = tested on: RPMI-8226
SW-620 = tested on: SW-620
LOX IMVI = tested on: LOX IMVI
CCRF-CEM = tested on: CCRF-CEM
T47D = tested on: T47D
ACHN = tested on: ACHN
UACC-257 = tested on: UACC-257
HCT-15 = tested on: HCT-15
UACC-62 = tested on: UACC-62
A549 = tested on: A549
NCI/ADR-RES = tested on: NCI/ADR-RES
HCC 2998 = tested on: HCC 2998
SK-MEL-2 = tested on: SK-MEL-2

With `Nc1nc(N)c2cc(Sc3ccc4ccccc4c3)ccc2n1` the GI50 (HCT-116) was 1.17 µM (inactive), the GI50 (MDA-N) was 0.733 µM (active) and the GI50 (SF-268) was 3.11 µM (inactive). For the same compound, the GI50 (HOP-92) was 1.14 µM (inactive), the GI50 (NCI-H226) was 10.7 µM (inactive) and the GI50 (SF-295) was 0.509 µM (active). For the same compound, the GI50 (RPMI-8226) was 2.14 µM (inactive), the GI50 (SW-620) was 0.729 µM (active) and the GI50 (LOX IMVI) was 0.627 µM (active). The GI50 (CCRF-CEM) was 0.705 µM (active), the GI50 (T47D) was 2.12 µM (inactive) and the GI50 (ACHN) was 0.509 µM (active). For the same compound, the GI50 (UACC-257) was 1.58 µM (inactive), the GI50 (HCT-15) was 0.643 µM and the GI50 (UACC-62) was 0.568 µM (active). For the same compound, the GI50 (A549) was 0.343 µM (active) and the GI50 (NCI/ADR-RES) was 1.07 µM (active).
For `O=C(NCCc1ccccc1)c1c(O)nc2ccccc2c1O`, the GI50 (HCT-116) was > 100 µM (inactive), the GI50 (MDA-N) was > 100 µM (inactive) and the GI50 (SF-268) was > 100 µM (inactive). For the same compound, the GI50 (HOP-92) was > 100 µM (inactive), the GI50 (NCI-H226) was > 100 µM (inactive) and the GI50 (SF-295) was > 100 µM (inactive). For the same compound, the GI50 (RPMI-8226) was > 100 µM (inactive), the GI50 (SW-620) was > 100 µM (inactive) and the GI50 (LOX IMVI) was > 100 µM (inactive). The GI50 (CCRF-CEM) was > 100 µM (inactive), the GI50 (ACHN) was > 100 µM (inactive) and the GI50 (UACC-257) was > 100 µM (inactive). The GI50 (HCT-15) was over 100 µM, the GI50 (HCC 2998) was > 100 µM (inactive) and the GI50 (A549) was > 100 µM (inactive). The GI50 (NCI/ADR-RES) was > 100 µM (inactive).
`CCCCCCN(CCCCCC)CCC(=O)c1ccc2cc(Br)c3ccccc3c2c1` was tested, and the GI50 (HCT-116) was 78.3 µM (inactive), the GI50 (SF-268) was 28.1 µM (inactive) and the GI50 (HOP-92) was 19.4 µM (inactive). For the same compound, the GI50 (NCI-H226) was 69.7 µM (inactive), the GI50 (SF-295) was 59 µM (inactive) and the GI50 (RPMI-8226) was 9.31 µM (inactive). The GI50 (SW-620) was 43.7 µM (inactive), the GI50 (LOX IMVI) was 32 µM (inactive) and the GI50 (T47D) was 23.3 µM (inactive). The GI50 (ACHN) was 54.1 µM (inactive), the GI50 (UACC-257) was 64.7 µM (inactive) and the GI50 (HCT-15) was 33.8 µM. The GI50 (UACC-62) was 25.8 µM (inactive), the GI50 (HCC 2998) was 41.3 µM (inactive) and the GI50 (A549) was > 100 µM (inactive). For the same compound, the GI50 (NCI/ADR-RES) was 48.5 µM (inactive) and the GI50 (SK-MEL-2) was 27.3 µM (inactive).
In the case of `CC1CC2C(=O)N(c3ccccc3)C(=O)C2c2c1c1ccccc1n2Cc1ccccc1` (stereo not drawn), the GI50 (HCT-116) was 29.3 µM (inactive), the GI50 (SF-268) was > 100 µM (inactive) and the GI50 (HOP-92) was 9.84 µM (inactive). For the same compound, the GI50 (NCI-H226) was 33.3 µM (inactive), the GI50 (SF-295) was > 100 µM (inactive) and the GI50 (RPMI-8226) was > 100 µM (inactive). The GI50 (SW-620) was > 100 µM (inactive), the GI50 (LOX IMVI) was > 100 µM (inactive) and the GI50 (CCRF-CEM) was > 100 µM (inactive). The GI50 (ACHN) was 39.1 µM (inactive), the GI50 (HCT-15) was 35.1 µM and the GI50 (UACC-62) was > 100 µM (inactive). The GI50 (A549) was 32.1 µM (inactive) and the GI50 (SK-MEL-2) was > 100 µM (inactive).
`CC1=C(C)C(=O)OC(C(C)(O)C2(O)CCC3(O)C4CC(Cl)C5(O)C(O)C=CC(=O)C5(C)C4CCC32C)C1` (stereo not drawn) was tested, and the GI50 (HCT-116) was 19.1 µM (inactive), the GI50 (MDA-N) was 20 µM (inactive) and the GI50 (SF-268) was 48.1 µM (inactive). The GI50 (HOP-92) was > 100 µM (inactive), the GI50 (NCI-H226) was > 100 µM (inactive) and the GI50 (SF-295) was 30.3 µM (inactive). The GI50 (RPMI-8226) was 8.99 µM (inactive), the GI50 (SW-620) was 21.3 µM (inactive) and the GI50 (LOX IMVI) was 14.9 µM (inactive). For the same compound, the GI50 (CCRF-CEM) was 14.1 µM (inactive), the GI50 (T47D) was > 100 µM (inactive) and the GI50 (ACHN) was 42.1 µM (inactive). The GI50 (UACC-257) was 37.2 µM (inactive), the GI50 (HCT-15) was 28.7 µM and the GI50 (UACC-62) was 9.1 µM (inactive). For the same compound, the GI50 (HCC 2998) was 27.1 µM (inactive), the GI50 (A549) was 69.3 µM (inactive) and the GI50 (SK-MEL-2) was > 100 µM (inactive).
In the case of `CC(C)=NN/C(=N\c1ccc(Cl)cc1)NS(=O)(=O)c1ccc(Oc2cccc(Cl)c2C#N)cc1`, the GI50 (HCT-116) was > 100 µM (inactive), the GI50 (MDA-N) was > 100 µM (inactive) and the GI50 (SF-268) was > 100 µM (inactive). For the same compound, the GI50 (HOP-92) was > 100 µM (inactive), the GI50 (NCI-H226) was > 100 µM (inactive) and the GI50 (SF-295) was > 100 µM (inactive). For the same compound, the GI50 (RPMI-8226) was > 100 µM (inactive), the GI50 (SW-620) was > 100 µM (inactive) and the GI50 (LOX IMVI) was > 100 µM (inactive). The GI50 (CCRF-CEM) was > 100 µM (inactive), the GI50 (T47D) was > 100 µM (inactive) and the GI50 (UACC-257) was > 100 µM (inactive). For the same compound, the GI50 (HCT-15) was over 100 µM, the GI50 (UACC-62) was > 100 µM (inactive) and the GI50 (A549) was > 100 µM (inactive). The GI50 (NCI/ADR-RES) was > 100 µM (inactive) and the GI50 (SK-MEL-2) was > 100 µM (inactive).
With `CN(C)CCNc1ccc(NCC[N+](C)(C)Cc2ccc([N+](=O)[O-])cc2)c2c1C(=O)c1ccccc1C2=O` the GI50 (HCT-116) was 10.9 µM (inactive), the GI50 (MDA-N) was 18.3 µM (inactive) and the GI50 (SF-268) was 11.9 µM (inactive). For the same compound, the GI50 (HOP-92) was > 25 µM (inactive), the GI50 (NCI-H226) was 23.4 µM (inactive) and the GI50 (SF-295) was 18.6 µM (inactive). For the same compound, the GI50 (RPMI-8226) was 10.8 µM (inactive), the GI50 (SW-620) was 13.3 µM (inactive) and the GI50 (LOX IMVI) was 15 µM (inactive). For the same compound, the GI50 (T47D) was > 25 µM (inactive), the GI50 (ACHN) was 12.1 µM (inactive) and the GI50 (UACC-257) was 8.41 µM (inactive). The GI50 (UACC-62) was 18.5 µM (inactive), the GI50 (A549) was 23.4 µM (inactive) and the GI50 (NCI/ADR-RES) was > 25 µM (inactive). The GI50 (SK-MEL-2) was > 25 µM (inactive).
In the case of `CN(NC1=NCCO1)c1ccc2ccccc2c1`, the GI50 (HCT-116) was 35 µM (inactive), the GI50 (SF-268) was 47.5 µM (inactive) and the GI50 (HOP-92) was 13.6 µM (inactive). The GI50 (NCI-H226) was 34.1 µM (inactive), the GI50 (SF-295) was > 100 µM (inactive) and the GI50 (RPMI-8226) was 76.7 µM (inactive). The GI50 (SW-620) was 34.1 µM (inactive), the GI50 (LOX IMVI) was 37.4 µM (inactive) and the GI50 (CCRF-CEM) was 17.2 µM (inactive). The GI50 (T47D) was 62.5 µM (inactive), the GI50 (ACHN) was 62.8 µM (inactive) and the GI50 (UACC-257) was 65 µM (inactive). For the same compound, the GI50 (HCT-15) was 49.4 µM, the GI50 (UACC-62) was 49.1 µM (inactive) and the GI50 (HCC 2998) was 38.8 µM (inactive). The GI50 (A549) was 60.3 µM (inactive), the GI50 (NCI/ADR-RES) was 33.2 µM (inactive) and the GI50 (SK-MEL-2) was 27.8 µM (inactive).
